# Results from article PMC6804162, “Inhibitory Effects of Novel 7-Substituted 6-iodo-3-O-Flavonol Glycosides against Cholinesterases and β-secretase Activities, and Evaluation for Potential Antioxidant Properties” (Molecules, 2019).
# Several values for one entry are separate records, joined by “and”; a condition that tells them apart may be missing. Equal values may be shown once.
# How the values were obtained:
# [1] = DPPH radical scavenging activity assay; conditions: DPPH 0.20 mM in methanol, 45 min in the dark, mean ± SD
# Protocol: The test compounds at various concentration ranging from (0 to 40 µM) in DMSO were mixed with a solution of DPPH (0.20 mM) in methanol. […] All tests and analyses were run in triplicate and averaged. The inhibition was calculated in terms of percentage using the formula below:DPPH radical scavenged (%) = [(AbC ‒ AbS)/AbC] × 100(2) where AbC is absorbance of control and AbS the absorbance of the test sample.
# [2] = biological target: acetylcholinesterase (AChE) (Homo sapiens, UniProt P22303); assay: biochemical; type: biochemical; conditions: for SI BChE/AChE: AChE selectivity index = IC50 (BChE)/IC50 (AChE); for IC50: mean ± SD, three independent experiments
# Protocol: (§1) The IC50 and standard deviation values were determined graphically using Graph Pad Prism.
# [3] = biological target: butyrylcholinesterase (BChE) (Homo sapiens, UniProt P06276); assay: biochemical; conditions: for SI AChE/BChE: BChE selectivity index = IC50 (AChE)/IC50 (BChE); for IC50: mean ± SD, three independent experiments
# Protocol: as §1
# β-secretase (BACE-1) [4] = biological target: T1, β-secretase (BACE-1) (Homo sapiens, UniProt P56817); assay: Kinetic study against β-secretase (Lineweaver–Burk and Dixon plots); type: biochemical; conditions: for Mode of inhibition of β-secretase: Lineweaver–Burk plot; for Ki: from Dixon plots, read-out: Ki for inhibition of β-secretase
# T1 construct: purchased Pan Vera; host or cells: baculovirus expression system
# Protocol: (§2) The Lineweaver–Burk plots were drawn to determine the type of inhibition these compounds display against AChE and BChE (refer to Figure S2. In the Supplementary Material for the corresponding graphs).
# (§3) Kinetic evaluation of 2l and 2p against ChEs or β-secretase were conducted following similar procedures previously employed for the corresponding flavonol precursors.
# BChE = BChE (Homo sapiens, UniProt P06276); assay: Kinetic study against BChE (Lineweaver–Burk and Dixon plots); type: biochemical; conditions: for Mode of inhibition of BChE: Lineweaver–Burk plot; for Ki: from Dixon plots
# Protocol: as §2, §3
# β-secretase (BACE-1) [5] = biological target: T1, β-secretase (BACE-1); assay: In vitro β-secretase inhibitory FRET assay; type: biochemical; conditions: 60 min incubation, read-out: IC50 (µM) against β-secretase activity
# Protocol: The inhibition ratio was calculated using the following equation:Inhibition (%) = [1 − (S − S0)/(C − C0)] × 100(1) where C is the fluorescence of control (enzyme, assay buffer, and substrate) after 60 min of incubation, C0 is the fluorescence of control at time 0, S is the fluorescence of tested samples (enzyme, sample solution, and substrate) after 60 min of incubation, and S0 the fluorescence of the tested samples at time 0.
# AChE = AChE (Homo sapiens, UniProt P22303); assay: Kinetic study against AChE (Lineweaver–Burk and Dixon plots); type: biochemical; conditions: for Mode of inhibition of AChE: Lineweaver–Burk plot; for Ki: from Dixon plots, read-out: Inhibition constant (Ki) against AChE
# Protocol: as §2, §3
# Chain of butyrylcholinesterase (BChE) (P06276 29-602): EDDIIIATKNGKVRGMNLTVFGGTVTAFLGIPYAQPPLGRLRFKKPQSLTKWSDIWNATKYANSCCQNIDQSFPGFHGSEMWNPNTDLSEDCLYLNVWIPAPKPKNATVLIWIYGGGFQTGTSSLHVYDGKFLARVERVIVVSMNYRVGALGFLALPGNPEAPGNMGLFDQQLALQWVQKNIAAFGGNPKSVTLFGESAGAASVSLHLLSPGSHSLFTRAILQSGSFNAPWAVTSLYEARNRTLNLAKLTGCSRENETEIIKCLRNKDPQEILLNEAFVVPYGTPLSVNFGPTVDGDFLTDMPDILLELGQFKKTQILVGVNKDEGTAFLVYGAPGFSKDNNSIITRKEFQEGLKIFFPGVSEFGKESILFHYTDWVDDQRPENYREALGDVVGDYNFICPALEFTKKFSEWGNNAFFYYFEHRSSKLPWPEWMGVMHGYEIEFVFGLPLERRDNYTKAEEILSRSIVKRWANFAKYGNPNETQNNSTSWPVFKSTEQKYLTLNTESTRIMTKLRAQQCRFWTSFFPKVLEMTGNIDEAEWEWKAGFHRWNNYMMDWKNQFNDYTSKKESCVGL
# Chain of BChE (P06276 29-602): as above
# Chain of AChE (P22303 32-614): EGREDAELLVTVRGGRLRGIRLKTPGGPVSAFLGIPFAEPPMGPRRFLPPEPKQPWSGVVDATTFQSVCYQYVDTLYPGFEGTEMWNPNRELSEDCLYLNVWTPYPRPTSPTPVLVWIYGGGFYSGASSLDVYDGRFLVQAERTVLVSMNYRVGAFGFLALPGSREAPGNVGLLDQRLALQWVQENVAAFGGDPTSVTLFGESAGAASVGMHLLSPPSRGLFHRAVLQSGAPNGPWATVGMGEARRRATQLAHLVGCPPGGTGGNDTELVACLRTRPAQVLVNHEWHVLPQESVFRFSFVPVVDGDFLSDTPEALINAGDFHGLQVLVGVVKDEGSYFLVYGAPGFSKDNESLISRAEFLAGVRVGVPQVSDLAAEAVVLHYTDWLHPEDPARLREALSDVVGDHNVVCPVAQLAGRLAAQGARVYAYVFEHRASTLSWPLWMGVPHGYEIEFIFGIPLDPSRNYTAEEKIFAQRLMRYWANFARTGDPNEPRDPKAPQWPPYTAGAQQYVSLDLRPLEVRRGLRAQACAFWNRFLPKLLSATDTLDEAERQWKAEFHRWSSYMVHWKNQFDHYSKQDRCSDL
# Chain of acetylcholinesterase (AChE) (P22303 32-614): as above
# T1 sequence (P56817 46-501): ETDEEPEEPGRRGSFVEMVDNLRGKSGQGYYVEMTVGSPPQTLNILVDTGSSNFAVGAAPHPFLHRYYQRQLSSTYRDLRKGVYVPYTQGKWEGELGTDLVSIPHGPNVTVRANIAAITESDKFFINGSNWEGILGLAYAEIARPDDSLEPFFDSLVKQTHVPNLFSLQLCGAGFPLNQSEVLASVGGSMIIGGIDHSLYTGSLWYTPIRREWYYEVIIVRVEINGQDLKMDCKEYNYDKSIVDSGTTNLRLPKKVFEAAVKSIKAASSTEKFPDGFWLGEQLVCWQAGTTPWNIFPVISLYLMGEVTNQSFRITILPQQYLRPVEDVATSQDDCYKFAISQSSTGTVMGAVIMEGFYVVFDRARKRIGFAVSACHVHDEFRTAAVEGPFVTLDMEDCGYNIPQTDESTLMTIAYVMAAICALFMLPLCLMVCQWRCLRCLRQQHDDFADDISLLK
smiles,measurement,setting,value
"O=C1O[C@H]([C@@H](O)CO)C(O)=C1O [Ascorbic acid, ascorbic acid, reference compound]",IC50,[1],5.5 ± 0.02 µM
"CC(=O)OC[C@H]1O[C@@H](Oc2c(-c3ccccc3)oc3cc(F)c(I)cc3c2=O)[C@H](OC(C)=O)[C@@H](OC(C)=O)[C@@H]1OC(C)=O [Compound 2a, 7-Fluoro-6-iodo-2-phenyl-4H-chromen-4-one-3-O-2,3,4,6-O-tetraacetyl-β-d-glucopyranoside]",SI BChE/AChE,[2],1.40
same,IC50,[2],18.72 ± 0.03 µM
same,SI AChE/BChE,[3],0.71
same,IC50,[3],26.17 ± 0.01 µM
"CC(=O)OC[C@H]1O[C@@H](Oc2c(-c3ccc(F)cc3)oc3cc(F)c(I)cc3c2=O)[C@H](OC(C)=O)[C@@H](OC(C)=O)[C@@H]1OC(C)=O [Compound 2b, 7-Fluoro-(4-fluorophenyl)-6-iodo-4H-chromen-4-one-3-O-2,3,4,6-O-tetraacetyl-β-d-glucopyranoside]",SI BChE/AChE,[2],0.78
same,IC50,[2],28.2 ± 0.02 µM
same,SI AChE/BChE,[3],1.3
same,IC50,[3],21.9 ± 0.04 µM
"CC(=O)OC[C@H]1O[C@@H](Oc2c(-c3ccc(Cl)cc3)oc3cc(F)c(I)cc3c2=O)[C@H](OC(C)=O)[C@@H](OC(C)=O)[C@@H]1OC(C)=O [Compound 2c, 7-Fluoro-2-(4-Chlorophenyl)-6-iodo-4H-chromen-4-one-3-O-2,3,4,6-O-tetraacetyl-β-d-glucopyranoside]",SI BChE/AChE,[2],1.25
same,IC50,[2],24.74 ± 0.03 µM
same,SI AChE/BChE,[3],0.80
same,IC50,[3],30.84 ± 0.04 µM
"COc1ccc(-c2oc3cc(F)c(I)cc3c(=O)c2O[C@@H]2O[C@H](COC(C)=O)[C@@H](OC(C)=O)[C@H](OC(C)=O)[C@H]2OC(C)=O)cc1 [Compound 2d, 7-Fluoro-6-iodo-2-(4-methoxyphenyl)-4H-chromen-4-one-3-O-2,3,4,6-O-tetraacetyl-β-d-glucopyranoside]",SI BChE/AChE,[2],0.32
same,IC50,[2],60.4 ± 0.05 µM
same,SI AChE/BChE,[3],3.13
same,IC50,[3],19.25 ± 0.11 µM
"CC(=O)OCC1OC(Oc2c(-c3ccccc3)oc3cc(Cl)c(I)cc3c2=O)C(OC(C)=O)C(OC(C)=O)C1OC(C)=O (stereo not drawn) [Compound 2e, 7-Chloro-6-iodo-2-phenyl-4H-chromen-4-one-3-O-2,3,4,6-O-tetraacetyl-β-d-glucopyranoside]",SI BChE/AChE,[2],0.26
same,IC50,[2],34.44 ± 0.03 µM
same,SI AChE/BChE,[3],3.85
same,IC50,[3],9.03 ± 0.12 µM
"CC(=O)OC[C@H]1O[C@@H](Oc2c(-c3ccc(F)cc3)oc3cc(Cl)c(I)cc3c2=O)[C@H](OC(C)=O)[C@@H](OC(C)=O)[C@@H]1OC(C)=O [Compound 2f, 7-Chloro-2-(4-fluorophenyl)-6-iodo-4H-chromen-4-one-3-O-2,3,4,6-O-tetraacetyl-β-d-glucopyranoside]",SI BChE/AChE,[2],0.44
same,IC50,[2],70.66 ± 0.01 µM
same,SI AChE/BChE,[3],2.27
same,IC50,[3],31.09 ± 0.04 µM
"CC(=O)OCC1OC(Oc2c(-c3ccc(Cl)cc3)oc3cc(Cl)c(I)cc3c2=O)C(OC(C)=O)C(OC(C)=O)C1OC(C)=O (stereo not drawn) [Compound 2g, 7-Chloro-2-(4-chlorophenyl)-6-iodo-4H-chromen-4-one-3-O-2,3,4,6-O-tetraacetyl-β-d-glucopyranoside]",IC50,[1],13.1 ± 0.01 µM
same,SI BChE/AChE,[2],0.23
same,IC50,[2],31.44 ± 0.13 µM
same,SI AChE/BChE,[3],4.35
same,IC50,[3],7.15 ± 0.01 µM
"COc1ccc(-c2oc3cc(Cl)c(I)cc3c(=O)c2O[C@@H]2O[C@H](COC(C)=O)[C@@H](OC(C)=O)[C@H](OC(C)=O)[C@H]2OC(C)=O)cc1 [Compound 2h, 7-Chloro-6-iodo-2-(4-methoxyphenyl)-4H-chromen-4-one-3-O-2,3,4,6-O-tetraacetyl-β-d-glucopyranoside]",SI BChE/AChE,[2],0.39
same,IC50,[2],25.92 ± 0.02 µM
same,SI AChE/BChE,[3],2.56
same,IC50,[3],10.1 ± 0.06 µM
"CC(=O)OC[C@H]1O[C@@H](Oc2c(-c3ccccc3)oc3cc(Br)c(I)cc3c2=O)[C@H](OC(C)=O)[C@@H](OC(C)=O)[C@@H]1OC(C)=O [Compound 2i, 7-Bromo-6-iodo-2-phenyl-4H-chromen-4-one-3-O-2,3,4,6-O-tetraacetyl-β-d-glucopyranoside]",SI BChE/AChE,[2],0.14
same,IC50,[2],70.56 ± 0.03 µM
same,SI AChE/BChE,[3],7.14
same,IC50,[3],9.79 ± 0.04 µM
"CC(=O)OC[C@H]1O[C@@H](Oc2c(-c3ccc(F)cc3)oc3cc(Br)c(I)cc3c2=O)[C@H](OC(C)=O)[C@@H](OC(C)=O)[C@@H]1OC(C)=O [Compound 2j, 7-Bromo-2-(4-fluorophenyl)-6-iodo-4H-chromen-4-one-3-O-2,3,4,6-O-tetraacetyl-β-d-glucopyranoside]",SI BChE/AChE,[2],1.31
same,IC50,[2],31.2 ± 0.05 µM
same,SI AChE/BChE,[3],0.76
same,IC50,[3],40.93 ± 0.04 µM
"CC(=O)OCC1OC(Oc2c(-c3ccc(Cl)cc3)oc3cc(Br)c(I)cc3c2=O)C(OC(C)=O)C(OC(C)=O)C1OC(C)=O (stereo not drawn) [Compound 2k, 7-Bromo-2-(4-chlorophenyl)-6-iodo-4H-chromen-4-one-3-O-2,3,4,6-O-tetraacetyl-β-d-glucopyranoside]",IC50,[1],11.4 ± 0.02 µM
same,SI BChE/AChE,[2],5.78
same,IC50,[2],5.18 ± 0.01 µM
same,SI AChE/BChE,[3],0.17
same,IC50,[3],29.95 ± 0.02 µM
"COc1ccc(-c2oc3cc(Br)c(I)cc3c(=O)c2OC2OC(COC(C)=O)C(OC(C)=O)C(OC(C)=O)C2OC(C)=O)cc1 (stereo not drawn) [Compound 2l, 7-Bromo-6-iodo-2-(4-methoxyphenyl)-4H-chromen-4-one-3-O-2,3,4,6-O-tetraacetyl-β-d-glucopyranoside]",IC50,[1],21.6 ± 0.03 µM
same,Mode of inhibition of β-secretase,β-secretase (BACE-1) [4],non-competitive
same,Ki,β-secretase (BACE-1) [4],2.42 ± 0.05 µM
same,Mode of inhibition of BChE,BChE,non-competitive
same,Ki,BChE,1.51 ± 0.04 µM
same,SI BChE/AChE,[2],1.43
same,IC50,[2],5.05 ± 0.02 µM
same,IC50,β-secretase (BACE-1) [5],18.3 ± 0.01 µM
same,SI AChE/BChE,[3],0.70
same,IC50,[3],7.24 ± 0.03 µM
same,Mode of inhibition of AChE,AChE,non-competitive
same,Ki,AChE,1.38 ± 0.62 µM
"COc1cc2oc(-c3ccccc3)c(O[C@@H]3O[C@H](COC(C)=O)[C@@H](OC(C)=O)[C@H](OC(C)=O)[C@H]3OC(C)=O)c(=O)c2cc1I [Compound 2m, 6-Iodo-7-methoxy-2-phenyl-4H-chromen-4-one-3-O-2,3,4,6-O-tetraacetyl-β-d-glucopyranoside]",SI BChE/AChE,[2],0.53
same,IC50,[2],56.21 ± 0.01 µM
same,SI AChE/BChE,[3],1.89
same,IC50,[3],29.8 ± 0.06 µM
"COc1cc2oc(-c3ccc(F)cc3)c(OC3OC(COC(C)=O)C(OC(C)=O)C(OC(C)=O)C3OC(C)=O)c(=O)c2cc1I (stereo not drawn) [Compound 2n, 2-(4-Fluorophenyl)-6-Iodo-7-methoxy-4H-chromen-4-one-3-O-2,3,4,6-O-tetraacetyl-β-d-glucopyranoside]",IC50,[1],14.4 ± 0.02 µM
same,SI BChE/AChE,[2],5.49
same,IC50,[2],6.33 µM and 6.23 µM
same,SI AChE/BChE,[3],0.18
same,IC50,[3],34.21 ± 0.02 µM
"COc1cc2oc(-c3ccc(Cl)cc3)c(O[C@@H]3O[C@H](COC(C)=O)[C@@H](OC(C)=O)[C@H](OC(C)=O)[C@H]3OC(C)=O)c(=O)c2cc1I [Compound 2o, 2-(4-Chlorophenyl)-6-iodo-7-methoxy-4H-chromen-4-one-3-O-2,3,4,6-O-tetraacetyl-β-d-glucopyranoside]",SI BChE/AChE,[2],1.28
same,IC50,[2],28.12 ± 0.06 µM
same,SI AChE/BChE,[3],0.78
same,IC50,[3],36.1 ± 0.02 µM
"COc1ccc(-c2oc3cc(OC)c(I)cc3c(=O)c2OC2OC(COC(C)=O)C(OC(C)=O)C(OC(C)=O)C2OC(C)=O)cc1 (stereo not drawn) [Compound 2p, 6-Iodo-7-methoxy-2-(4-methoxyphenyl)-4H-chromen-4-one-3-O-2,3,4,6-O-tetraacetyl-β-d-glucopyranoside]",IC50,[1],17.9 ± 0.04 µM
same,Mode of inhibition of β-secretase,β-secretase (BACE-1) [4],non-competitive
same,Ki,β-secretase (BACE-1) [4],2.94 ± 0.02 µM
same,Mode of inhibition of BChE,BChE,non-competitive
same,Ki,BChE,1.62 ± 0.03 µM
same,SI BChE/AChE,[2],0.57
same,IC50,[2],9.19 ± 0.03 µM
same,IC50,β-secretase (BACE-1) [5],25.2 ± 0.15 µM
same,SI AChE/BChE,[3],1.75
same,IC50,[3],5.21 ± 0.03 µM
same,Mode of inhibition of AChE,AChE,non-competitive
same,Ki,AChE,2.36 ± 0.32 µM
"O=c1c(O)c(-c2ccc(O)c(O)c2)oc2cc(O)cc(O)c12 [Quercetin, quercetin, reference compound]",IC50,[1],3.1 µM
